In assay [1] the test system is mouse hepatoma cell line HepG2. Put plainly: In-vitro anti-hepatoma activity, MTT cell growth inhibition, HepG2. Format: cell-based. Conditions: mouse hepatoma cell line HepG2, 72 hours. As for the experimental part:
(§1) Inoculatecancer cells in the logarithmic phase in each well of a 96-well culture plate (2×10^4 cells/well); add the drugs until the final concentrations of the drugs are 500, 250, 125, 62.5, 31.25, 15.625 and 7.8125 μg/mL, after culturing the cancer cells for 72 hours in a cell incubator with a CO2 concentration of 5%, add 10 μL of MTT to each well, incubate the cancer cells at 37° C. in darkness for 4 hours, remove the culture solution, add 150 μL of Dimethyl Sulfoxide (DMSO) or acidified isopropyl alcohol, after oscillating for 5 minutes, measure the Optical Density (OD) value at a wavelength of 570 nm; repeat the steps above for three times; set a blank control group; the cell lines use the same culture medium, which is a RPMI1640 culture medium containing 10% of FBS and 1% of double-antibody (penicillin and streptomycin).
(§2) 3. Calculation Formula of Cell Viability Cell viability=(experimental group OD value/control group OD value)×100%.
FIG. 10 is curve of inhibitory effect of a compound with Structural Formula (II) prepared in the first embodiment on cell growth of […] hepatoma cell line HepG2. […]

Assay [2] concerns human mononuclear lymphoma cells THP1. Put plainly: In-vitro anti-lymphoma activity, MTT cell growth inhibition, THP1. Format: cell-based. The settings on record: THP-1, human mononuclear lymphoma cells THP1, 72 hours. As to the method: as §1, §2
FIG. 13 is a curve of inhibitory effect of a compound with Structural Formula (II) prepared in the first embodiment on cell growth of human mononuclear lymphoma cells THP1. […]

The subject of assay [3] is mouse sarcoma cell line S180. Briefly: In-vitro anti-cancer activity, MTT cell growth inhibition, S180. The settings on record: S-180, mouse sarcoma cell line S180, 72 hours. Format: cell-based. As to the method:
as §1, §2
FIG. 11 is a curve of inhibitory effect of a compound with Structural Formula (II) prepared in the first embodiment on cell growth of mouse sarcoma cell line S180.

The test system of assay [4] is human tissue lymphoma cells U937. Put plainly: In-vitro anti-lymphoma activity, MTT cell growth inhibition, U937. Format: cell-based. Conditions: U-937, human tissue lymphoma cells U937, 72 hours. As for the experimental part: as §1, §2
The subject of assay [5] is mouse hepatoma cell line H22. Briefly: In-vitro anti-hepatoma activity, MTT cell growth inhibition, H22. The settings on record: mouse hepatoma cell line H22, 72 hours, read-out: half maximal inhibitory concentration (IC50) value. The assay is classed as cell-based. As for the experimental part: as §1, §2
FIG. 9 is a curve of inhibitory effect of a compound with Structural Formula (II) prepared in the first embodiment on cell growth of mouse hepatoma cell line H22. […]

Assay [6] relates to mouse lymphoma cells YAC-1. Put plainly: In-vitro anti-lymphoma activity, MTT cell growth inhibition, YAC-1. Format: cell-based. The settings on record: mouse lymphoma cells YAC-1, 72 hours. As to the method:
as §1, §2
FIG. 12 is a curve of inhibitory effect of a compound with Structural Formula (II) prepared in the first embodiment on cell growth of mouse lymphoma cells YAC-1.

The next assay addresses T1, HMG-CoA reductase (Rattus norvegicus, UniProt P51639).
T1 construct: take out a male rat liver, after washing the male rat liver with a KESD buffer solution; from tissue; host or cells: male rat liver microsomes
T1 sequence (P51639 1-887): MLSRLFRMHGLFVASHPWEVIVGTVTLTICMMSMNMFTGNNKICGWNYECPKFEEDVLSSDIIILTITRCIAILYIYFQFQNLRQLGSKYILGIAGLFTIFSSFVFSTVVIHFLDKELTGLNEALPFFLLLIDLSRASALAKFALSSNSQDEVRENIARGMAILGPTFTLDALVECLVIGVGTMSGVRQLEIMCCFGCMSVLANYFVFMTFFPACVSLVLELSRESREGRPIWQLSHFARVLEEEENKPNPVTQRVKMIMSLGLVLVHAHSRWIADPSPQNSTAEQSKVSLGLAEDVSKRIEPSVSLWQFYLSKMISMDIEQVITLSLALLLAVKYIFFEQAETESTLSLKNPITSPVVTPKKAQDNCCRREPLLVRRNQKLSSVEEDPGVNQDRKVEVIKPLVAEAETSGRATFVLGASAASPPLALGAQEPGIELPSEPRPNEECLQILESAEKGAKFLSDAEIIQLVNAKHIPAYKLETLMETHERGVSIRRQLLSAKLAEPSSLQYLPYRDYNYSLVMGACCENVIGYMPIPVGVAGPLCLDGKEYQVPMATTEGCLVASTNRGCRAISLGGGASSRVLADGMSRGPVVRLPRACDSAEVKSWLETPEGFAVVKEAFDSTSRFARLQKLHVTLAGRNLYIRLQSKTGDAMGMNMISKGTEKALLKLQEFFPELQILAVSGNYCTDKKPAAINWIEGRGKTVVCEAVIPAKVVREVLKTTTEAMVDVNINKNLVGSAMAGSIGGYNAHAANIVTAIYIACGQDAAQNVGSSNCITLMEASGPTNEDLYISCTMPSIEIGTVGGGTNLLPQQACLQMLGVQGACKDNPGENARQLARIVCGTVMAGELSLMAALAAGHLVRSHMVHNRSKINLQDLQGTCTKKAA
Briefly: HMG-CoA reductase inhibitory activity experiment (OD340 decrease, rat liver microsomes). The settings on record: for Slope: decreasing speed of OD340 within 5 minutes, 37° C., blank control slope 15.6. The assay is classed as biochemical. As for the experimental part: Rat liver microsomes (HMG-CoA reductase) that may be commercially available or prepared with reference to the following method: take out a male rat liver, after washing the male rat liver with a KESD buffer solution, perform 1200 g centrifugation for 15 minutes, take the supernatant, after performing 105000 g centrifugation again for 90 minutes twice, collect centrifugation sediments, add 8.3% glycerol to the centrifugation sediments, heating for 1 hour with a 37° C. warm bath, purify coarse rat liver microsomes with saturated ammonium sulfate, and collect 35-50% of the purified part. The obtained purified part may be stored in a refrigerator at −80° C.
Dissolve 5.0 mg of the compound with Structural Formula (II) prepared in the first embodiment, Compound 4 or Compound 5, and 2.0 mg of lovastatin with 1 mL of a 75% ethanol solution, respectively;
the total volume of measurement system is 250 μL and the concentrations of the constituents are: potassium chloride 200 mM, potassium dihydrogen phosphate 160 mM, ethylenediaminetetraacetic acid 4 mM and dithiothreitol 10 mM; the concentrations of two substrates NADPH and HMG-CoA are respectively 200 μM and 50 μM, pH6.8, enzyme 30 μL.
Add an ethanol solution with 5 μL of the compound prepared by the first embodiment or an ethanol solution of Compound 4 or an ethanol solution of Compound 5 to a test group, add 5 μL of a lovastatin ethanol solution to a positive control group; add 5 μL of 75% ethanol to a blank control group; detect dynamic change of OD340 on a Versamax microplate reader at 37° C., and evaluate the HMG-CoA reductase activity level by detecting the decreasing speed (represented by a slope value) of OD340 within 5 minutes to further evaluate the enzyme inhibitory activity level, the result is as shown in Table 1.
For orientation: Microsomes from liver hold many membrane-bound enzymes, among them those of drug oxidation.

Setting [7] is: final concentration in the system 100 μg/mL.
Setting [8] is: final concentration in the system 40 μg/mL.

Regarding `C[C@@H](C(O)C1OC2C[C@@H]3[C@](C)(CC[C@H]4[C@@]35C=CC3(CC(O)CC[C@]43C)OO5)[C@H]2[C@@]1(C)O)C(C)(C)O` (stereo partly shown) [Compound with Structural Formula (II), 5,8-epidioxy-16,22-epoxy-ergosta-6-en-3,20,23,25-tetrol], the IC50 in assay [1] was about 400 µg/mL; in assay [2], about 400 µg/mL; in assay [3] it was about 460 µg/mL; in assay [4] it was about 320 µg/mL; in assay [5] it was about 200 µg/mL; in assay [6] it was about 350 µg/mL. This compound also came in with a Slope on HMG-CoA reductase (setting [7]) of 10.7. Also, the “Inhibitory rate (%)” value on HMG-CoA reductase (setting [7]) was determined as 31.4%.
For the compound `CC[C@H](C)C(=O)O[C@H]1C[C@@H](C)C=C2C=C[C@H](C)[C@H](CC[C@@H]3C[C@@H](O)CC(=O)O3)[C@H]21` [Lovastatin, lovastatin, reference compound], at HMG-CoA reductase (setting [8]), the Slope came to 9.0 and the “Inhibitory rate (%)” value was 42.3%.

Source of the values: patent US10093695B2, “Sterol derivative, preparation method therefor and use thereof” (Beijing Peking University WBL Biotech Co., Ltd., priority 2012, dated 2018).
